According to patent US20090227450A1, “Triazole-Based Fungicidal Mixtures” (BASF Aktiengesellschaft, priority 2005, published 2009):

System: Botrytis cinerea
Assay: Activity against the gray mold pathogen Botrytis cinerea in the microtiter test (Botrci)
Type: cell-based
Conditions: microtiter plate, 405 nm, day 7 after inoculation
Method: The expected efficacies of active compound combinations were determined using Colby's formula (Colby, S. R. “Calculating synergistic and antagonistic responses of herbicide combinations”, Weeds, 15, 20-22, 1967) and compared with the observed efficacies.
E=x+y−x·y/100 • E expected efficacy, expressed in % of the untreated control, when using the mixture of the active compounds A and B at the concentrations a and b • x efficacy, expressed in % of the untreated control, when using the active compound A at the concentration a • y efficacy, expressed in % of the untreated control, when using the active compound B at the concentration b
The active compounds were formulated separately as a stock solution having a concentration of 10 000 ppm in DMSO.
The active compound epoxiconazole was used as a commercial formulation.
The stock solution is pipetted onto a microtiter plate (MTP) and diluted to the stated active compound concentration using a malt-based aqueous nutrient medium for fungi. An aqueous spore suspension of Botrytis cinerea was then added. The plates were placed in a water vapor-saturated chamber at temperatures of 18° C. Using an absorption photometer, the MTPs were measured at 405 nm on day 7 after the inoculation. The measured parameters were compared to the growth of the active compound-free control variant and the fungus- and active compound-free blank value to determine the relative growth in % of the pathogens in the individual active compounds.
The visually determined values for the percentage of infected leaf area were initially converted into a mean value and then converted into efficacies in % of the untreated control. An efficacy of 0 means the same degree of infection as in the untreated control, an efficacy of 100 means 0% infection. The expected efficacies for active compound combinations were determined using Colby's formula (Colby, S. R. (Calculating synergistic and antagonistic responses of herbicide combinations”, Weeds, 15, pp. 20-22, 1967) and compared to the observed efficacies.

| SMILES | Observed effect (%) (conc. 0.016 ppm) | Observed effect (%) (conc. 0.063 ppm) | Observed effect (%) (conc. 0.004 ppm) | Observed effect (%) (conc. 0.25 ppm) |
| --- | --- | --- | --- | --- |
| Fc1ccc(C2(Cn3cncn3)OC2c2ccccc2Cl)cc1 (stereo not shown) [Epoxiconazole, epoxiconazole] | 15 | 48 |  |  |
| CO/C=C(/C(=O)OC)c1ccccc1COc1cccc(C(F)(F)F)n1 [Picoxystrobin, picoxystrobin] |  |  | 0 | 3 |
